Data set [1] is described as follows: Plasma clearance in rat at 1 mg/kg, iv. The data set is classed as ADME, organism-based. On the set-up: dose 1 mg/kg, route intravenous.
Another data set deals with Cytochrome P450 2C9 (Homo sapiens, UniProt P11712).
Data set [2] addresses T1, Bifunctional epoxide hydrolase 2 (Homo sapiens, UniProt P34913).
T1 sequence (P34913 whole entry): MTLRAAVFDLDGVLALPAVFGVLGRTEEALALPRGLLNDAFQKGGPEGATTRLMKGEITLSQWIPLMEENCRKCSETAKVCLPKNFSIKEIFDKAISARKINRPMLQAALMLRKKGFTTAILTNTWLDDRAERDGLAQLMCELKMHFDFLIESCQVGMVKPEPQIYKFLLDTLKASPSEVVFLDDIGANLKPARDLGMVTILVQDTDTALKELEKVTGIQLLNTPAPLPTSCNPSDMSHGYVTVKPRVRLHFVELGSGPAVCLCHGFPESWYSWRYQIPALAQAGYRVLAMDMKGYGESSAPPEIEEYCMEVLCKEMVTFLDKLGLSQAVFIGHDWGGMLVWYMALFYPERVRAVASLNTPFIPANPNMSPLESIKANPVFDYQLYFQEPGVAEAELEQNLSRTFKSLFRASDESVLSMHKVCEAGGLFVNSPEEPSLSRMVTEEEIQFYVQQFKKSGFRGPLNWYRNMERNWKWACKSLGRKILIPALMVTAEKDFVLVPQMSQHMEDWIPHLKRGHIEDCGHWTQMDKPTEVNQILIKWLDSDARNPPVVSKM
Description: Inhibition of human soluble epoxide hydrolase using PHOME as substrate assessed as formation of 6-methoxy-2-naphthaldehyde incubated for 10 mins prior to substrate addition measured with in 30 mins by fluorescence assay

Data set [3] addresses T1, Bifunctional epoxide hydrolase 2. This is another data set of the same source.
Description: Inhibition of human soluble epoxide hydrolase overexpressed in HEK293F cells using EET as substrate assessed as formation of DHET incubated for 30 mins prior to substrate addition measured after 60 mins by ELISA
The nature of data set [4]: Fraction unbound in rat plasma. The class given is ADME, cell-free.

Some results are limits rather than exact numbers.

Sequence of Cytochrome P450 2C9 (P11712 whole entry): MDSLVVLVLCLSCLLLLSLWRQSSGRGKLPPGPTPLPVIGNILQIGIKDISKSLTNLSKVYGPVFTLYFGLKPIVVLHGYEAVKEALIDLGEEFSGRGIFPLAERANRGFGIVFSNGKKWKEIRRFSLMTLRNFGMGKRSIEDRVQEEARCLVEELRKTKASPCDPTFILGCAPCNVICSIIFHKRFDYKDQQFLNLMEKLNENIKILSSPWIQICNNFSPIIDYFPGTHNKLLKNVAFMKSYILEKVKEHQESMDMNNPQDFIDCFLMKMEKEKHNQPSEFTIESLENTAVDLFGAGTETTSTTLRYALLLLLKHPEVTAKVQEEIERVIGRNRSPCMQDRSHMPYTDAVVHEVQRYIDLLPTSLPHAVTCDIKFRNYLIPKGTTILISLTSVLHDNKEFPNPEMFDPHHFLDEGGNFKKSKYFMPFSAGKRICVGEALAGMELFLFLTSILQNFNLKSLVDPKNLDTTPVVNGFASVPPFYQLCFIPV
Description for Cytochrome P450 2C9: Inhibition of CYP2C9 (unknown origin)

For orientation: clearance means the rate of elimination divided by the concentration. Low values mean a low capacity for elimination, high ones a high capacity for elimination. The IC50 is the concentration that gives 50% inhibition. In the case of `CNc1nc(C)nc(N2CCC(C(=O)NCc3ccc(OC)cc3C(F)(F)F)CC2)n1`, the clearance in data set [1] stood at 7 mL/min/kg. Further, the IC50 on Cytochrome P450 2C9 is above 25000 nM; in data set [2], 1 nM; in data set [3], 2 nM.
Consider `CNc1cc(C)nc(N2CCC(C(=O)NCc3ccccc3C(F)(F)F)CC2)n1`, for which the IC50 is above 25000 nM against Cytochrome P450 2C9 and 160 nM in data set [2].
Regarding `CNc1nc(C)nc(N2CCC(C(=O)NCc3ccccc3C#N)CC2)n1`, the IC50 against Cytochrome P450 2C9 was above 25000 nM; in data set [2], 80 nM.
The fraction unbound is free concentration divided by total concentration. High values mean much free substance, low ones little free substance. `CNc1nc(-c2ccccc2)nc(N2CCC(C(=O)NCc3ccccc3C(F)(F)F)CC2)n1` had a fraction unbound in data set [4] of 0.015. The clearance in data set [1] was 3 mL/min/kg. For the same compound, the half-inhibitory concentration (IC50) was determined as 1800 nM against Cytochrome P450 2C9, 1 nM in data set [2] and 63 nM in data set [3].
On to `CNc1nc(C)nc(N2CCC(C(=O)NCc3ccccc3C)CC2)n1`, for which the IC50 against Cytochrome P450 2C9 is above 25000 nM; in data set [2], 200 nM.
As to `CNc1nc(C2CCCCC2)nc(N2CCC(C(=O)NCc3ccccc3C(F)(F)F)CC2)n1`, the IC50 against Cytochrome P450 2C9 amounted to 63 nM; in data set [2], 1 nM.
Take `CNc1nc(C)nc(N2CCC(C(=O)NCc3ccc(OC(F)(F)F)cc3)CC2)n1`: the IC50 against Cytochrome P450 2C9 is above 25000 nM; in data set [2], 400 nM.
In data set [1], `CNc1cc(C)cc(N2CCC(C(=O)NCc3ccccc3C(F)(F)F)CC2)n1` showed a clearance of 61 mL/min/kg. Further, the values for the IC50 (on Cytochrome P450 2C9; in data set [2]; in data set [3]) were 11000 nM, 10 nM and 100 nM, respectively.
For `Cc1nc(NC(C)C)nc(N2CCC(C(=O)NCc3ccccc3C(F)(F)F)CC2)n1`, the IC50 at Cytochrome P450 2C9 is 400 nM; in data set [2] it was 1 nM; in data set [3] it was 10 nM.
As to `CNc1cc(N2CCC(C(=O)NCc3ccccc3C(F)(F)F)CC2)nc(C)n1`, the clearance in data set [1] was 73 mL/min/kg. Also, the IC50 at Cytochrome P450 2C9 was 1000 nM; in data set [2], 5 nM; in data set [3], 80 nM.
Consider `Cc1nc(N2CCOCC2)nc(N2CCC(C(=O)NCc3ccccc3C(F)(F)F)CC2)n1`, for which the values for the IC50 (at Cytochrome P450 2C9; in data set [2]; in data set [3]) were 400 nM, 1 nM and 3 nM, respectively.
In the case of `CNc1nc(C)nc(N2CCC(C(=O)NCc3ccccc3)CC2)n1`, the IC50 at Cytochrome P450 2C9 is above 25000 nM; in data set [2] it was 200 nM.
Turning to `CNc1cc(C)cc(N2CCC(C(=O)NCc3ccccc3C(F)(F)F)CC2)c1`, the IC50 is 2000 nM on Cytochrome P450 2C9 and 32 nM in data set [2].
As for `CNc1nc(C)nc(N2CCC(C(=O)NCc3ccccc3OC(F)(F)F)CC2)n1`, in data set [1], the clearance amounted to 44 mL/min/kg. In addition, the IC50 on Cytochrome P450 2C9 was above 25000 nM; in data set [2] it was 1 nM; in data set [3], 3 nM.
In the same order, the values of `COCCNc1nc(C)nc(N2CCC(C(=O)NCc3ccccc3C(F)(F)F)CC2)n1` are 27 mL/min/kg, 1800 nM, 1 nM and 1 nM.
For `CNc1nc(C)nc(N2CCC(C(=O)NCc3ccc(F)cc3C(F)(F)F)CC2)n1`, the IC50 was above 25000 nM on Cytochrome P450 2C9, 3 nM in data set [2] and 50 nM in data set [3].
In data set [1], `CNc1nc(C)nc(N2CCC(C(=O)NCc3ccccc3C(F)(F)F)CC2)n1` registered a clearance of 51 mL/min/kg. The IC50 at Cytochrome P450 2C9 was 25000 nM; in data set [2], 3 nM; in data set [3] it was 100 nM.
`CNc1cc(C)nc(N2CCC(C(=O)NCc3ccccc3C(F)(F)F)CC2)c1`: the IC50 against Cytochrome P450 2C9 was above 25000 nM; in data set [2], 1590 nM.
In the same order, the values of `CNc1nc(C)nc(N2CCC(C(=O)NCc3ccccc3OC)CC2)n1` are above 25000 nM and 1600 nM.
`CNc1nc(NC)nc(N2CCC(C(=O)NCc3ccccc3C(F)(F)F)CC2)n1` displayed a clearance in data set [1] of 79 mL/min/kg. Besides, the IC50 was found to be 25000 nM against Cytochrome P450 2C9, 20 nM in data set [2] and 100 nM in data set [3].
For `CNc1nc(N(C)CCN(C)C)nc(N2CCC(C(=O)NCc3ccccc3C(F)(F)F)CC2)n1`, the clearance in data set [1] was determined as 140 mL/min/kg. The IC50 on Cytochrome P450 2C9 was 17000 nM; in data set [2], 80 nM.
Turning to `CNc1nc(C)nc(N2CCC(C(=O)NCc3cccc(OC(F)(F)F)c3)CC2)n1`, the IC50 against Cytochrome P450 2C9 is above 25000 nM; in data set [2], 630 nM.
For `CNc1cc(N2CCC(C(=O)NCc3ccccc3C(F)(F)F)CC2)cc(C)n1`, in that order: above 25000 nM and 126 nM.
Turning to `CCc1nc(NC)nc(N2CCC(C(=O)NCc3ccccc3C(F)(F)F)CC2)n1`, the 50% inhibitory concentration (IC50) on Cytochrome P450 2C9 came to 9600 nM; in data set [2] it was 4 nM; in data set [3], 80 nM.
`CNc1nc(N2CCC(C(=O)NCc3ccccc3C(F)(F)F)CC2)nc(N2CCN(C)CC2)n1` displayed a clearance in data set [1] of 46 mL/min/kg.
Consider `CNc1nc(C)cc(N2CCC(C(=O)NCc3ccccc3C(F)(F)F)CC2)n1`, for which the IC50 on Cytochrome P450 2C9 was above 25000 nM; in data set [2] it was 40 nM.

The values above are taken from ChEMBL document CHEMBL2390902, “Discovery of 1-(1,3,5-triazin-2-yl)piperidine-4-carboxamides as inhibitors of soluble epoxide hydrolase” (Bioorg Med Chem Lett, 2013).
